# In US7521207B2, “Rhesus monkey Nur77” (Merck & Co., Inc., priority 2005, dated 2009):
# Key:
# [1] = system: Nur77 expression in the seminal vesicles; conditions: orchiectomized (ORX) rats, FIG. 6, to various extents
# [2] = system: Nur77 expression in 22RV1 cells; assay: Expression of Nur77 in prostrate cancer cells (FIG. 5); assay type: cell-based; conditions: prostrate cancer cells (22RV1 cells), to various extents
smiles,measurement,setting,value
"C[C@]12CCC(=O)C[C@@H]1CC[C@@H]1[C@@H]2CC[C@]2(C)[C@@H](O)CC[C@@H]12 [DHT, dihydrotestosterone]",expression of Nur77,[1],can be modulated
same,expression of Nur77,[2],can be controlled
